Test results as given in patent US20260144798A1, “Disruption of Vascular Smooth Muscle Relaxation by Carfilzomib May be the Primary Reason for CFZ-Induced Vascular Dysfunction” (AMGEN INC., priority 2019, published 2026).
Like-named read-outs stand apart in the source and are kept apart here.

Tests used:
rat aortic rings [1] = assay: Acetylcholine-induced relaxation of phenylephrine-precontracted rat aortic rings; conditions: for prevention of CFZ induced vascular dysfunction in the presence of ACh: inhibitor 10 mins before 2.7 μM CFZ for 1 hour, 1 μM Phenylephrine precontraction (FIG. 8A, 9A); for EC50 for ACh-induced relaxation, CFZ in combination with PDE5 inhibitor: PDE5 inhibitor 30 nM, 10-minute pre-treatment before CFZ, CFZ alone 7.3×10^−8, vehicle alone 1.9×10^−8 (FIG. 5B)
Procedure: (§2) For assessment of the effect of CFZ on vascular relaxation, the pre-treated aortic rings were incubated with 1 μM PE for 20 minutes to induce contraction. For experiments involving sildenafil and tadalafil, a 10-minute pre-treatment with 30 nM of these smooth muscle relaxants was done prior to the incubation with CFZ. After reaching a stable contraction, ACh, sodium nitroprusside (SNP), nifedipine, riociguat, or cinaciguat was added to the chamber at an increasing concentration from 100 pM to 10 μM; each stepwise concentration increase was added after the response to the current concentration reached a plateau. The relaxation was continuously measured and plotted as percent relaxation normalized to the response with 1 μM PE.
(§3) Aortas were isolated from 8-10 week old CD® (Sprague Dawley) rats (from Charles River Laboratories) in an ice-cold, oxygenated (95% O2, 5% CO2) Krebs-Henseleit buffer. The aortas were then carefully cleaned to remove perivascular fat and cut into 2-mm rings that were mounted between two stainless steel wires in the myograph chamber containing 8 mL of Krebs-Henseleit buffer in 95% O2 and 5% CO2 at 37° C. Rings were stretch until a final stretch of 10 mN (Newton) was reached and incubated for 30 mins for equilibration.

rat aortic rings [2] = assay: Sodium nitroprusside-induced relaxation of phenylephrine-precontracted rat aortic rings; conditions: for prevention of CFZ induced vascular dysfunction in the presence of SNP: inhibitor 10 mins before 2.7 μM CFZ for 1 hour, 1 μM Phenylephrine precontraction (FIG. 8B, 9B)
Procedure: as §2, §3

rat aortic rings [3] = assay: Angiotensin induced contraction (AUC) of rat aortic rings; conditions: inhibitor 10 mins before 2.7 μM CFZ 1.5 hour; 30 nM Angiotensin (FIG. 11)
Procedure: Aortas were isolated from 8-10 week old CD® (Sprague Dawley) rats (from Charles River Laboratories) in an ice-cold, oxygenated (95% O2, 5% CO2) Krebs-Henseleit buffer. The aortas were then carefully cleaned to remove perivascular fat and cut into 2-mm rings that were mounted between two stainless steel wires in the myograph chamber containing 8 mL of Krebs-Henseleit buffer in 95% O2 and 5% CO2 at 37° C. Rings were stretch until a final stretch of 10 mN (Newton) was reached and incubated for 30 mins for equilibration. The rings were constricted with 8 mL of 80 mM KPSS for 15 minutes, followed by 3 washes with the Krebs-Henseleit buffer until the force returned to the baseline stretch. The aorta were then treated for one of the following experiments: • For protein expression studies the aortic rings were pre-treated with 100 μM N(gamma)-nitro-L-arginine methyl ester (L-NAME; Sigma-Aldrich) and 10 μM indomethacin for 10 minutes prior to the pre-incubation with CFZ (Amgen Inc.) for 1.5 hours.
Following the two incubation the rings were treated with either vehicle or 2.7 μM CFZ for further 1.5 hours before addition of 30 nM Angiotensin for 30 min. Angiotensin induced transient contraction which returned to the baseline in 30 mins. Area Under the Curve (AUC) of angiotensin induced contraction was measured.
Aortic rings were incubated for 10 min with 100 μM LNAME+10 μM indomethacin (endothelium derived relaxing agents blockers) for 10 mins followed by addition of 10 μM SB 203580 (p38 inhibitor) or PF3644022 (MAPKAPK-2 inhibitor) in some rings for 10 more mins as indicated. This was followed by addition of 2.7 μM CFZ in some rings as indicated for 1.5 hour. 30 nM Angiotensin was added for 30 min. Angiotensin induced transient contraction which returned to the baseline in 30 mins.

rat aortic rings [4] = assay: Nifedipine-induced relaxation of rat aortic rings; conditions: increasing concentration of nifedipine (FIG. 2C)
Procedure: An isometric myograph (DMT 620M) was used for ex vivo measurement of vascular function. Eight-to 10-week old Sprague Dawley rats (purchased from Charles River Laboratories, Wilmington, MA) were first anesthetized with 3% isoflurane and then euthanized using inhaled desflurane. The aortas were isolated in an ice-cold, oxygenated (95% O2, 5% CO2) Krebs-Henseleit buffer (118.3 mM NaCl, 4.7 mM KCl, 1.2 mM MgSO4, 1.2 mM KH2PO4, 2.5 mM CaCl2, 25 mM NaHCO3, and 11.0 mM glucose; purchased from Sigma-Aldrich, St. Louis, MO). […] The tension of the aortic rings was continuously measured with the Lab Chart 7 data acquisition system (ADInstruments, Colorado Springs, CO). […]
(§1) To assess the effect of CFZ on vascular contraction, the aortic rings were pre-treated with or without CFZ for 2 hours, followed by treatment with an increasing concentration of phenylephrine (PE) from 10 nM to 1 μM. […] The contraction was continuously measured and plotted as percent contraction normalized to the response of KPSS. […] The relaxation was continuously measured and plotted as percent relaxation normalized to the response with 1 μM PE.

rat aortic rings [5] = assay: sGC activator (cinaciguat, riociguat)-induced relaxation of rat aortic rings; conditions: Rattus norvegicus
Procedure: An isometric myograph (DMT 620M) was used for ex vivo measurement of vascular function. Eight-to 10-week old Sprague Dawley rats (purchased from Charles River Laboratories, Wilmington, MA) were first anesthetized with 3% isoflurane and then euthanized using inhaled desflurane. The aortas were isolated in an ice-cold, oxygenated (95% O2, 5% CO2) Krebs-Henseleit buffer (118.3 mM NaCl, 4.7 mM KCl, 1.2 mM MgSO4, 1.2 mM KH2PO4, 2.5 mM CaCl2, 25 mM NaHCO3, and 11.0 mM glucose; purchased from Sigma-Aldrich, St. Louis, MO). The thoracic aorta was carefully cleaned to remove perivascular fat and cut into 2-mm rings that were mounted between two stainless steel wires in the myograph chamber containing 8 mL of Krebs-Henseleit buffer in 95% O2 and 5% CO2 at 37° C. First, the rings were equilibrated in the chamber for 20 minutes, followed by a gradual increase of mechanical stretch until a final stretch of 10 mN (Newton) was reached. After an additional incubation with fresh buffer for 30 minutes, the rings were constricted with 8 mL of 80 mM KPSS (43 mM NaCl, 80 mM KCl, 2.5 mM CaCl2, 1.2 mM MgSO4, 1.2 mM KH2PO4, 25.0 mM NaHCO3, and 11.0 mM glucose) for 15 to 20 minutes, followed by 3 washes with the Krebs-Henseleit buffer until the force returned to the baseline stretch. The tension of the aortic rings was continuously measured with the Lab Chart 7 data acquisition system (ADInstruments, Colorado Springs, CO). […] The tension of the aortic rings was continuously measured with the Lab Chart 7 data acquisition system (ADInstruments, Colorado Springs, CO).
as §1

rat aortic rings [6] = assay: Basal vascular tone of isolated rat aortic rings, isometric myograph; conditions: 10 μM SB 203580 10 mins before 2.7 μM CFZ for 3 hour; LNAME+indomethacin (FIG. 10)
Procedure: An isometric myograph (DMT 620M) was used for ex vivo measurement of vascular function. Eight-to 10-week old Sprague Dawley rats (purchased from Charles River Laboratories, Wilmington, MA) were first anesthetized with 3% isoflurane and then euthanized using inhaled desflurane. The aortas were isolated in an ice-cold, oxygenated (95% O2, 5% CO2) Krebs-Henseleit buffer (118.3 mM NaCl, 4.7 mM KCl, 1.2 mM MgSO4, 1.2 mM KH2PO4, 2.5 mM CaCl2, 25 mM NaHCO3, and 11.0 mM glucose; purchased from Sigma-Aldrich, St. Louis, MO). The thoracic aorta was carefully cleaned to remove perivascular fat and cut into 2-mm rings that were mounted between two stainless steel wires in the myograph chamber containing 8 mL of Krebs-Henseleit buffer in 95% O2 and 5% CO2 at 37° C. First, the rings were equilibrated in the chamber for 20 minutes, followed by a gradual increase of mechanical stretch until a final stretch of 10 mN (Newton) was reached. After an additional incubation with fresh buffer for 30 minutes, the rings were constricted with 8 mL of 80 mM KPSS (43 mM NaCl, 80 mM KCl, 2.5 mM CaCl2, 1.2 mM MgSO4, 1.2 mM KH2PO4, 25.0 mM NaHCO3, and 11.0 mM glucose) for 15 to 20 minutes, followed by 3 washes with the Krebs-Henseleit buffer until the force returned to the baseline stretch. The tension of the aortic rings was continuously measured with the Lab Chart 7 data acquisition system (ADInstruments, Colorado Springs, CO). In Some of the experiments the aortic rings were pre-treated with 100 μM N(gamma)-nitro-L-arginine methyl ester (L-NAME; Sigma-Aldrich) and 10 μM indomethacin for 10 minutes prior to the pre-incubation with CFZ (Amgen Inc.) for 2 hours. After an additional incubation with fresh buffer for 30 minutes, the rings were constricted with 8 mL of 80 mM KPSS (43 mM NaCl, 80 mM KCl, 2.5 mM CaCl2, 1.2 mM MgSO4, 1.2 mM KH2PO4, 25.0 mM NaHCO3, and 11.0 mM glucose) for 15 to 20 minutes, followed by 3 washes with the Krebs-Henseleit buffer until the force returned to the baseline stretch. The tension of the aortic rings was continuously measured with the Lab Chart 7 data acquisition system (ADInstruments, Colorado Springs, CO).
To assess the effect of CFZ on vascular contraction, the aortic rings were pre-treated with or without CFZ for 2 hours, followed by treatment with an increasing concentration of phenylephrine (PE) from 10 nM to 1 μM. After the maximum contraction was achieved, the aortic rings were washed 3 times until the force returned to baseline. The contraction was continuously measured and plotted as percent contraction normalized to the response of KPSS. […] The relaxation was continuously measured and plotted as percent relaxation normalized to the response with 1 μM PE. […]

Cc1ccc(-c2ccc3c(ccc4sc5c(c43)NC[C@@H](C)NC5=O)n2)cn1 [PF3644022]
prevention of CFZ induced vascular dysfunction in the presence of ACh (rat aortic rings [1]): prevented CFZ induced vascular dysfunction
prevention of CFZ induced vascular dysfunction in the presence of SNP (rat aortic rings [2]): prevented CFZ induced vascular dysfunction
prevention of CFZ-increased angiotensin induced contraction (rat aortic rings [3]): prevented

CN1CC(=O)N2[C@H](c3ccc4c(c3)OCO4)c3[nH]c4ccccc4c3C[C@@H]2C1=O [tadalafil]
EC50 for ACh-induced relaxation, CFZ in combination with PDE5 inhibitor (rat aortic rings [1]): 2.8×10^−8

COC(=O)C1=C(C)NC(C)=C(C(=O)OC)C1c1ccccc1[N+](=O)[O-] [nifedipine]
plateau of vascular relaxation (rat aortic rings [4]): around 50%

CCCc1nn(C)c2c(=O)[nH]c(-c3cc(S(=O)(=O)N4CCN(C)CC4)ccc3OCC)nc12 [sildenafil]
reversal of CFZ effect on VSM relaxation in the presence of ACh (rat aortic rings [1]; 30 nM pre-treatment 10 minutes before CFZ (FIG. 5B)): reversed the CFZ effect on VSM relaxation
EC50 for ACh-induced relaxation, CFZ in combination with PDE5 inhibitor (rat aortic rings [1]): 2.8×10^−8
reversal of CFZ effect on VSM relaxation in the presence of SNP (rat aortic rings [2]; 30 nM pre-treatment 10 minutes before CFZ (FIG. 5A)): reversed the CFZ effect on VSM relaxation

COC(=O)N(C)c1c(N)nc(-c2nn(Cc3ccccc3F)c3ncccc23)nc1N [riociguat]
EC50 (rat aortic rings [5]; rings pre-incubated with CFZ (FIG. 4C), read-out: EC50 for relaxation, sGC activator with CFZ): 17 nM
EC50 (rat aortic rings [5]; without CFZ (FIG. 4C), read-out: EC50 for relaxation, sGC activator alone): 18 nM

C[S+]([O-])c1ccc(-c2nc(-c3ccncc3)c(-c3ccc(F)cc3)[nH]2)cc1 (centres unmarked) [SB203580]
prevention of CFZ induced increase in vascular tone (rat aortic rings [6]): completely prevented
prevention of CFZ induced vascular dysfunction in the presence of ACh (rat aortic rings [1]): prevented CFZ induced vascular dysfunction
prevention of CFZ induced vascular dysfunction in the presence of SNP (rat aortic rings [2]): prevented CFZ induced vascular dysfunction
prevention of CFZ-increased angiotensin induced contraction (rat aortic rings [3]): prevented
